Test results reported in patent publication US11179450B2, “Long chain antigen containing interepitope sequence that promotes antigen presentation to T cells” (MIE UNIVERSITY, priority 2013, dated 2021).

What was measured:
[1] = test system: MA p265 specific CD8+ T cells; assay: Specific CD8+ T cell induction in mice, intracellular cytokine staining (MA p265 epitope); format: in vivo, BALB/c mice; details: FIG. 6; comparing one to six tyrosines
Method: (§1) Long chain peptide antigens MEN, all containing three types of mouse CD8+ T cell epitope sequences (MA p265 (Sequence No. 27), NY p81 (Sequence No. 29), and mERK2 9m (Sequence No. 28)), were synthesized. The interepitope sequences between the respective epitopes were one to six consecutive tyrosines (Sequence Nos. 1 and 9-12). Vaccines containing the respective long chain peptide antigens were administered to mice in the same manner as in FIG. 1 and the frequencies of CD8+ T cells specific to the respective epitope sequences were measured by the intracellular cytokine staining method.
as §1, with “five” for “one”, “ten” for “six”, “13-15).” for “9-12).”
Each CHP/long chain peptide complex as the vaccine and the CpG oligo DNA as the adjuvant were administered at the same time to a mouse. Administration was performed by subcutaneous injection on the back of the mouse. […]

[2] = test system: CD11c+ cells (dendritic cells); assay: In vitro uptake of FAM-labeled long chain peptide antigens by antigen-presenting cells (dendritic cells); format: cell-based; details: FIG. 8, complexed with CHP, 10 μg/mL, mouse spleen cells, 60 minutes, in comparison to G6 and P6
Source text: Long chain peptide antigens MEN, all containing three types of mouse CD8+ T cell epitope sequences (MA p265 (Sequence No. 27), NY p81 (Sequence No. 29), and mERK2 9m (Sequence No. 28)), were synthesized. The interepitope sequences between the respective epitopes were respectively six consecutive tyrosines (Y6), six consecutive glycines (G6), or six consecutive prolines (P6) (Sequence Nos. 1-3). Each long chain peptide antigen, labeled with the fluorescent dye FAM, was complexed with CHP and administered in vitro to mouse dendritic cells and mouse macrophages. After 60 minutes, the fluorescence uptakes into the respective cells were measured by flow cytometry with the P5 fraction in the figure being deemed to correspond to the dendritic cells and the P6 fraction in the figure being deemed to correspond to the macrophages.
In vitro uptake of the long chain peptide antigens by antigen-presenting cells was measured as follows. Each long chain peptide labeled with a fluorescent dye was complexed with CHP by the method described above. Spleen cells separated from a normal mouse were added at 1×10^6 cells/0.5 mL/well to a 24-well plate. […] The uptake of the fluorescence-labeled long chain peptide antigens by CD11c^+ cells (dendritic cells) and F4/80^+ cells (macrophages) were observed using flow cytometry.

## SNPARYEFLYYYYYYQYIHSANVLYYYYYYRGPESRLL (Long chain peptide antigen, containing three types of mouse CD8+ T cell epitope sequences (MA p265, NY p81, and mERK2 9m)) [MEN(Y6)]
[1]
  induction of specific CD8+ T cells, MA p265 (first epitope): highest
[2]
  fluorescence uptake into dendritic cells: significantly higher
